The IC50 is the concentration at which inhibition is half-maximal.

One compound from US20150087722A1, “TREATMENT FOR BREAST TUMOR CELL METASTASIS” (China Medical University, priority 2012, published 2015) can be followed below.

Test [1] has as its system cells stimulated by 10 ng/mL TNF-α. The test can be described thus: wound scratching assay of cells stimulated by TNF-α. Format: cell-based. Particulars: 10 and 20 μM, 24 h. The procedure: In the wound scratching assay for observing cell migration, the cells MDA-MB-231 (3×10^5) were planted in a 12-well plate, and the next day the cells were washed with PBS twice. The original culture medium then was replaced by 1% FBS cell culture medium. The next day a space was scratched at the bottom of the well. The cell culture medium was removed and the cells were washed with PBS twice. 1% FBS cell culture medium and the compound II of different concentrations were added and photographs were taken after 0, 12, 24 and 36 h so as to observe migration of cells. After the reaction, the cells were fixed for 30 min using 75% ice alcohol. After the alcohol was completely volatilized, the cells were stained with Giemsa Stain. The migration number of cells was counted in three random fields (200×) under the microscope (Lin et al., 2008). […] After the breast tumor cells were treated for 0, 12, 24 and 36 h, the quantitative result of effect of the compound II on metastasis of breast tumor cells MDA-MD-231 was observed, and the data results were represented by mean±SD values, where n=3. FIG. 19 illustrates the effect of the compound II in different doses on migration of cells stimulated by 10 ng/mL TNF-α and detected by the wound scratching assay, where the cells were observed under a microscope. […]

The subject of test [2] is Skin Tumor Cell (A2058 cell strain). The test can be described thus: MTT cell viability assay. Format: cell-based. Particulars: Homo sapiens.
In test [3] the test system is Her-2/neu, p-Tyrosine, PI3K and Akt in breast tumor cells MDA-MB-453. The test can be described thus: western blotting of Her-2/neu-related proteins. Format: cell-based, human. The procedure:
The steps of western blotting include: washing cells with PBS twice at 4° C.; adding a lysis buffer and rubbing the cells by a rubbr policeman so as to lyse cells; putting the lysed cell solution into a 1.5 ml microcentrifuge tube and shaking for 1 min; centrifuging at 12000 rpm for 10 min and taking the supernatant; measuring concentration of the protein through a Bio-Rad protein assay kit; and storing the remained extracted protein solution at −70° C.; taking 100 μg protein solution and adding a SDS/protein loading buffer having the same volume, where the SDS/protein loading buffer has a concentration two times larger than the protein solution; boiling the mixture of the protein solution and the SDS/protein loading buffer at 100° C. for 10 min; cooling and loading the protein samples in each hole of gel; adjusting the voltage to 100 V and running the protein samples on the gel until the tracking dye in the sample buffer reaches the bottom of the gel; and subsequently transferring the protein from the gel using electrophoresis. A PVDF membrane was soaked in methanol until the paper was totally wet. The paper was arranged in a transfer tank placed in a 4° C. ice box, and the protein transfer was performed at a current of […] for 4 h. The PVDF membrane was then taken out, placed in a PBS blocking solution including 1% BSA and shaken for 2 h. Then the PVDF membrane was placed in a blocking solution including a primary antibody and slowly shaken at 100 rpm for 1 h at the room temperature. […] Then luminescence image equipment was used, where the PVDF was placed onto a black metal plate by a plastic pincer and the face including protein was upwards, a 1:1 mixed Chemiluminesent Substrate was added into the membrane and the exposure time depends on the fluorescence intensity of antibodies. […] FIG. 22 illustrates expression results of Her-2/neu-related proteins used for facilitating survival of tumor cells when compounds of formula (I) in different doses were added, which were detected by the western blotting. […]
For orientation: A western blot detects proteins with antibodies after separation by electrophoresis.

In test [4] the test system is breast tumor cells MDA-MB-231. The experiment in a line: colony formation assay. Type of test: cell-based, human. Particulars: MDA-MB-231, 24 h treatment, FIG. 1B. An excerpt: In order to know the effect of the compound II on the colony formation of the breast tumor cells MDA-MB-231, the cells were observed through a colony formation assay.
Test [5] deals with Normal Keratinocyte Cell (HaCaT cell strain). The test can be described thus: MTT cell viability assay. Format: cell-based. Particulars: Homo sapiens. Background: Tetrazolium dyes change colour on reduction, which living cells bring about.

As for `COC1=C(OC)C(=O)C(C)=C(C)C1=O` [compound II], the cell migration result in test [1] is given as “not obvious”. The values for the IC50 in test [2] and in test [5] were 23.6 µM and 35.2 µM, respectively. Also, the “expression of Her-2/neu and p-Tyrosine” value in test [3] (40 μM) is “totally inhibited”. Moreover, in test [3] (10-60 μM, with increasing concentration), the “expression amount of p-Tyrosine activated by Her-2/neu” value is “significantly decreased”. The “protein expression of PI3K and Akt” value in test [3] (high concentration) was “inhibited”. In test [4], the “colony formation of breast tumor cells” value is “significantly inhibit colony formation”.
